Results published in article PMC8426359, “Use of a small molecule integrin activator as a systemically administered vaccine adjuvant in controlling Chagas disease” (NPJ Vaccines, 2021).

Biological target: T1, integrin α4β1 (very late activation antigen-4, VLA-4) (Homo sapiens, UniProt P05556+P13612)
T1 construct: gene ITGA4; endogenous integrin on Jurkat cells; with integrin β1 (ITGB1)
Experiment: static adhesion of Jurkat cells to VCAM-1; blocked by anti-α[…] or anti-β[…] mAb
Type: cell-based

T1 sequence (P13612 34-1032): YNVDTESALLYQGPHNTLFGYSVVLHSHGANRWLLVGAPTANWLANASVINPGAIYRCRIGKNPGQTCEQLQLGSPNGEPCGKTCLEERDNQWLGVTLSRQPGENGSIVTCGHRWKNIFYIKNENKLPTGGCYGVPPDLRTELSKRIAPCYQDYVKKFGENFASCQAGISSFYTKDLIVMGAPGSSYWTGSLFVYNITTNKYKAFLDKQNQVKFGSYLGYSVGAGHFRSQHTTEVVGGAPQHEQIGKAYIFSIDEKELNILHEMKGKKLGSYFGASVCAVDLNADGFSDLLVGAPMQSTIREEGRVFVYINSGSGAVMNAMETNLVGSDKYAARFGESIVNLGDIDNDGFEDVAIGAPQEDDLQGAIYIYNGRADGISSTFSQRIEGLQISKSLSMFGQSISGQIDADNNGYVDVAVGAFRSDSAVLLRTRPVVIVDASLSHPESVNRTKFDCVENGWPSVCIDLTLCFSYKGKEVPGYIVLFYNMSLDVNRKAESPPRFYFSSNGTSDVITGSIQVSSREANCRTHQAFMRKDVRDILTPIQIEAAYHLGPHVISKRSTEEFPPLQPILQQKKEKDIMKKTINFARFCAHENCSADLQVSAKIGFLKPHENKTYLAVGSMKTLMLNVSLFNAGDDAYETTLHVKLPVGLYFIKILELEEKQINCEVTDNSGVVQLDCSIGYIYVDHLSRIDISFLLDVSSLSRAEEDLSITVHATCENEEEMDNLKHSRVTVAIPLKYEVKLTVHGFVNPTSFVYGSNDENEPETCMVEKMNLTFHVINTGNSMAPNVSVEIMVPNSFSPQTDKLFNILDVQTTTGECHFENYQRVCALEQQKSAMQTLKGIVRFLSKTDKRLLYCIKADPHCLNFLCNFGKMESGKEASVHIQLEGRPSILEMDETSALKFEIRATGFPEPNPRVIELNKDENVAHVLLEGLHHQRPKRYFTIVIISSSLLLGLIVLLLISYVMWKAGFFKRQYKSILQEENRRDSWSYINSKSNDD
T1 sequence (P05556 21-798): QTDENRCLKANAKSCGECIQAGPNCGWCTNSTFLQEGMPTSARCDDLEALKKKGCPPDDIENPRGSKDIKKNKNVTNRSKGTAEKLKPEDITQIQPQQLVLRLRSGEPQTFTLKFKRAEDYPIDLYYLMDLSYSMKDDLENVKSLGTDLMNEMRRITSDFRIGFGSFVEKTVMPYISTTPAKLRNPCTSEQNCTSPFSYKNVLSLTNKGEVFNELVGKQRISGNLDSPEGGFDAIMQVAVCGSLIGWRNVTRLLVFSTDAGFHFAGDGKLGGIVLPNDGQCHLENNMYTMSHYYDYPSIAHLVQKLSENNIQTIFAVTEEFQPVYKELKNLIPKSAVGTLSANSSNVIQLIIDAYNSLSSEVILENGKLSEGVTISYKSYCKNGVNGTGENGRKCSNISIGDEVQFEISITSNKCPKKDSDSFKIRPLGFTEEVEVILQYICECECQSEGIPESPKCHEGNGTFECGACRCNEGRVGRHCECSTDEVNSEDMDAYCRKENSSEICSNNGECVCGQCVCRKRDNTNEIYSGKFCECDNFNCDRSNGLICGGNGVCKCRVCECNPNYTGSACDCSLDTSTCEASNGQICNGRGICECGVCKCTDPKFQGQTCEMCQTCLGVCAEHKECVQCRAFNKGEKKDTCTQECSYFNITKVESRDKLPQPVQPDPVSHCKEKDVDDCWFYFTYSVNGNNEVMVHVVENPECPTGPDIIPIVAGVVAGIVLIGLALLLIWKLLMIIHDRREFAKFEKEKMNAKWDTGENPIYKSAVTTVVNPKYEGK

With `O=C(OCCOCCOCCOC(=O)N(Cc1cccs1)Cc1cccs1)N(Cc1cccs1)Cc1cccs1` [7HP349] the EC50 was 2000 nM.
